Measured values taken from patent US11400389B2, “Marsdenia cundurango creeper extracts, cosmetic compositions comprising them and cosmetic uses of same” (ISP Investments LLC, priority 2017, dated 2022).
No end group written: not given here.

What was measured:
[1] = tested on: LAMP2; assay: Expression of the LAMP2 autophagy marker in skin biopsies with or without multi-toxin (cigarette smoke) stress; type: cell-based; details: human skin biopsies, extract 1% in a cream, EGCG 200 μg/ml
Experimental: The objective of this study was to observe the effect of treatment by condurango on skin biopsies previously subjected to multi-toxin stress, brought about by incubating the biopsies with cigarette smoke.
The selected marker is the lysosomal membrane protein LAMP2A, which is involved in the process of autophagy, one of the main pathways of degradation of cellular waste.
Human skin biopsies in culture were placed in a sealed chamber saturated with cigarette smoke for 30 minutes. This stress was referred to as multi-toxic stress due to the cigarette smoke being composed of toxic molecules from different classes. After the stress, the biopsies were placed in culture and treated by the condurango extract obtained from example 4 and formulated to 1% (mass/mass) in a cream, as in example 5. […]
At the end of this incubation, the protein LAMP2 was detected by immunomarking on skin biopsy sections.
This technique was performed on paraffin skin sections incubated in the presence of the anti-LAMP2 antibody (rabbit polyclonal antibody, Abcam) After 1 hour of incubation followed by rinsings, the sections were incubated in the presence of secondary anti-rabbit antibody coupled with a fluorophore (Alexa Fluor® 488, Invitrogen). The sections were then examined under epi-fluorescence microscope (Zeiss Axiovert 200M microscope). The expression of LAMP2 was then observed and quantified at epidermis level.

[2] = tested on: interleukin-6 (IL-6); assay: Salting-out of interleukin-6 by skin biopsies subjected to stress by substance P (ELISA); type: cell-based, human; details: substance P 10^−6 M in culture medium, 48 hours, extract 1% in a cream where applied
Text: The objective of this experiment was to study the effect of the condurango extract on skin biopsies subjected to a stress by the substance P. The substance P was the central mediator of neurogenic inflammation (inflammation mediated via the peripheral nervous system). The neuropeptide is involved in various processes, including acute or chronic inflammation, and the perception of pain or nociception. The effect of the stress, whether or not brought about in the presence of the condurango extract, was studied by measuring the salting-out of interleukin-6 (IL-6), a cytokine synthesised by skin cells and considered to be a nociceptive inflammation mediator (O'Donovan A et al. Clinical anxiety, cortisol and interleukin-6: evidence for specificity in emotion-biology relationships. Brain Behav Immun. 2010 October; 24(7):1074-7).
Skin biopsies in culture were treated with the condurango extract obtained from example 4, formulated to 1% in a cream, as in example 5, with or without addition of substance P at 10^−6 M in the culture medium.
After 48 hours of incubation, the culture medium of the biopsies was collected and the level of IL-6 was measured by ELISA.

Molecule	increase of LAMP2 after multi-toxic stress ([1]; cigarette smoke 30 minutes then treatment)	rise in the marking intensity of LAMP2, in the absence of stress ([1]; no stress, 48 hours)	level of IL-6 compared to the non-stressed control [2]
O=C(O[C@@H]1Cc2c(O)cc(O)cc2O[C@@H]1c1cc(O)c(O)c(O)c1)c1cc(O)c(O)c(O)c1 [EGCG, epigallocatechin gallate]	+26%	+27%	
substance P: neuropeptide, central mediator of neurogenic inflammation, used as stressor (RPKPQQFFGLM; ends and bridges not checked; UniProt P20366 58-68, looked up)			+68%
